Measurements taken from patent publication EP1226160B1.
Like-named read-outs stand apart in the source and are kept apart here.

Conditions: amide bond, DMF
[1] = PyBOP/HOBt/NMM, 16.0 h, 17 steps
[2] = PyBOP/HOBt/NMM, 16.0 h, 15 steps

Compound	ring closure, yield of all isomers [1]	ring closure, yield of all isomers [2]	also measured
C[C@@H]1NC(=O)CNC(=O)[C@H](CCC(N)=O)NC(=O)[C@H](Cc2ccc(O)cc2)NC(=O)[C@@H]2CCCN2C(=O)[C@@H]2C[C@@H](O)CN2C(=O)CNC1=O [cyclo(-Gly-Ala-Gly-Hyp-Pro-Tyr-Gln-)]	6.6%		
C[C@@H]1NC(=O)[C@H](CO)NC(=O)[C@H](C)NC(=O)[C@H](Cc2ccc(O)cc2)NC(=O)[C@H](CC(N)=O)NC(=O)CNC1=O [cyclo(-Tyr-Ala-Ser-Ala-Gly-Asn-)]		4.3%	
C[C@@H]1NC(=O)CNC(=O)[C@H](CC(N)=O)NC(=O)[C@H](Cc2ccc(O)cc2)NC(=O)[C@@H]2CCCN2C(=O)[C@@H]2C[C@@H](O)CN2C(=O)CNC1=O [cyclo(-Gly-Ala-Gly-Hyp-Pro-Tyr-Asn-)]	6.2%		
NC(=O)C[C@@H]1NC(=O)CNC(=O)[C@H](Cc2ccc(O)cc2)NC(=O)[C@H](CC(N)=O)NC(=O)CNC(=O)[C@H](Cc2ccc(O)cc2)NC1=O [cyclo(-Tyr-Gly-Asn-Tyr-Gly-Asn-)]			ring closure, yield of all isomers (PyBOP, 16 steps): 14%
C[C@@H]1NC(=O)CNC(=O)[C@@H]2C[C@@H](O)CN2C(=O)[C@@H]2CCCN2C(=O)[C@H](Cc2ccc(O)cc2)NC(=O)[C@H](CC(N)=O)NC(=O)CNC1=O [Cyclo(Tyr-Pro-4Hyp-Gly-Ala-Gly-Asn)]	7%		
C[C@@H]1NC(=O)CNC(=O)[C@@H]2C[C@@H](O)CN2C(=O)[C@@H]2CCCN2C(=O)[C@H](Cc2ccc(O)cc2)NC(=O)[C@H](CC(N)=O)NC1=O [Cyclo(Tyr-Pro-4Hyp-Gly-Ala-Asn)]		4.4%	
